# Assay results: US20070292384A1, “Water soluble micelle-forming and biodegradable cyclotriphosphazene-taxol conjugate anticancer agent and preparation method thereof” (priority 2006, published 2007)
# Like-named read-outs stand apart in the source and are kept apart here.
# Key:
# A-431 = test: In vitro cytotoxicity, A-431; format: cell-based; settings: average ± SD, n = 3-4
# Description: (§1) In order to evaluate the anticancer activity of the cyclotriphosphazene-taxol conjugates of the present invention, in vitro cytotoxicity of the representative compound of Example 1 was assayed both in saline and in pure water according to a standard testing procedure (Y. J. Jun, et al., J. Inorg. Biochem. (2005) 99:1593-1601), and the test results are shown in Table 1 below.
# [1] = Blood metabolism study in rats (HPLC of blood samples); format: in vivo, male Sprague-Dawley rats; settings: rat
# Description: To a group consisting of 4 male Sprague-Dawley rats (270-300 g) was administered the compound of Example 2 dissolved in a PBS solution at a concentration of 6.67 mg/ml by intravenous infusion with a dosage of 5 mg/kg for 3 minutes. After the drug administration, blood (100 μl) samples were taken from each rat for 48 hours at 0, 0.08, 0.5, 1, 2, 3, 4, 6, 8, 12, 24, 36 and 48 hours post injection, and the samples were analyzed with HPLC, and the results are presented in Table 2 below.
# [2] = system: MCF-7 breast cancer cell line; test: In vitro cytotoxicity, MCF-7; format: cell-based; settings: average ± SD, n = 3-4
# Description: as §1
# [3] = system: MDA-MB-231 breast cancer cell line; test: In vitro cytotoxicity, MDA-MB-231; format: cell-based; settings: average ± SD, n = 3-4
# Description: as §1
# [4] = system: SK-OV3 ovarian cancer cell line; test: In vitro cytotoxicity, SK-OV3; format: cell-based; settings: average ± SD, n = 3-4
# Description: as §1
# [5] = DLS measurement of micelle formation and micelle size; format: physicochemical; settings: 0.1 to 0.5% in distilled water, Malvern Zetasizer (Nano-ZS)
# Description: It was determined by a DLS (dynamic light scattering) method whether the cyclotriphosphazene-taxol conjugates prepared according to the present invention are aggregated in aqueous solution through interaction of the hydrophobic oligopeptide groups, so as to form micelles, according to the following procedure: A size distribution of an aqueous solution, in which 0.1 to 0.5% of the cyclotriphosphazene-taxol conjugate prepared in Example 1 was dissolved in distilled water, was measured by a DLS method using Malvern Zetasizer (Nano-ZS).
# [6] = intravenous infusion 5 mg/kg for 3 minutes, average
compound,measurement,setting,value
"CC(=O)O[C@H]1C(=O)[C@@]2(C)[C@H]([C@H](OC(=O)c3ccccc3)[C@]3(O)C[C@H](OC(=O)[C@H](O)[C@@H](NC(=O)c4ccccc4)c4ccccc4)C(C)=C1C3(C)C)[C@]1(OC(C)=O)CO[C@@H]1C[C@@H]2O [Taxol (free), Taxol]",IC50,"A-431; Homo sapiens, A-431, free taxol",25.1 ± 8.9 nM
same,AUC(0-t),"[1]; male, Sprague-Dawley, blood, intravenous infusion 5 mg/kg for 3 minutes, average, sampling to 48 hours",1970 ng·h/mL
same,AUC(0-inf),"[1]; male, Sprague-Dawley, blood, intravenous infusion 5 mg/kg for 3 minutes, average, read-out: AUCINF (measurement)",2290 ng·h/mL
same,C0,"[1]; male, Sprague-Dawley, blood, intravenous infusion 5 mg/kg for 3 minutes, average, read-out: C0",2700 ng/mL
same,AUClast/AUCINF,[1]; [6],85.9%
same,Cl_obs,[1]; [6],556.2 mL/h
same,Lambda z,[1]; [6],0.275 h⁻¹
same,Vz_obs,[1]; [6],2778.1 mL
same,t½_Lambda z,[1]; [6],3.54 h
same,IC50,"[2]; Homo sapiens, MCF7, free taxol",39 ± 4.9 nM
same,IC50,"[3]; Homo sapiens, MDA-MB-231, free taxol",47.1 ± 12.2 nM
same,IC50,"[4]; Homo sapiens, SK-OV-3, free taxol",65.8 ± 0.5 nM
[tris(methoxy-polyethyleneglycol350)][tris(glycyllysinemethylester)-mono-2′-succinyltaxol]cyclotriphosphazene [Example 1],IC50,A-431; in pure water,380 ± 89.2 nM
same,IC50,A-431; in saline solution,53.8 ± 13.9 nM
same,IC50,[2]; in pure water,447 ± 138 nM
same,IC50,[2]; in saline solution,129 ± 37.5 nM
same,IC50,[3]; in pure water,327 ± 54.5 nM
same,IC50,[3]; in saline solution,108 ± 10.9 nM
same,micelle radius (DLS),[5],105 nm
same,IC50,[4]; in pure water,503 ± 114 nM
same,IC50,[4]; in saline solution,138 ± 14.3 nM
[tris(methoxy-polyethyleneglycol550)][tris(glycyllysinemethylester)-mono-2′-succinyltaxol]cyclotriphosphazene [Example 2],AUCINF (measurement),[1]; [6],2.55
same,AUClast/AUCINF,[1]; [6],77.1%
same,C0,[1]; [6],1530 ng/mL
same,Cl_obs,[1]; [6],513.3 mL/h
same,Lambda z,[1]; [6],0.133 h⁻¹
same,Vz_obs,[1]; [6],4468.9 mL
same,t½_Lambda z,[1]; [6],6.29 h
same,AUClast,"[1]; intravenous infusion 5 mg/kg for 3 minutes, average, sampling to 48 hours",1970 ng·h/mL
same,in vivo half life relative to free taxol,"[1]; intravenous, compared with free taxol not formulated",twice longer
